The test system of assay [1] is Nanog, Oct4, Rex1, p53, p21 and p16. Put plainly: Expression of pluripotency markers and p53, p21, p16 during reprogramming (real-time RT-PCR, immunostaining). In kind it is cell-based, human. Here is the method: In still another example of the present invention, in order to examine whether the novel compound RSC-133 can promote kinetics in a culture process for reprogramming to shorten the time required for the induction of reprogramming, the expression patterns of pluripotency-specific markers were analyzed at various time points.
Total RNA was isolated from the produced cells using RNeasy Mini kit (Qiagen, Valencia, Calif.), and then reverse-transcribed using SuperScript First-strand synthesis system kit (Invitrogen) according to the manufacturer's instruction. […]
In order to examine whether RSC-133 can increase the rate of reprogramming, the relative levels of mRNA expressed during the reprogramming process were measured. […] Thus, it can be seen that RSC-133 can increase the efficiency of reprogramming and also can be involved in the reprogramming process to stimulate kinetics.
In general terms: Quantitative PCR measures a nucleic acid by following its amplification.

Another assay concerns H3K9ace. Put plainly: H3K9 acetylation during reprogramming (immunocytochemistry, Western blot). It is filed as cell-based, human. Here is the method: The left panel is a set of photographs showing the results obtained by inducing the reprogramming of human skin fibroblasts, culturing the cells for 10 days in the presence or absence of RSC-133, and then analyzing the cells by immunocytochemistry using monoclonal antibodies for H3K9ace and an undifferentiation marker (Nanog) (scale bar=200 μm). […] H3 protein was used as an internal control.
For immunostaining, cells were seeded on Matrigel-coated 4-well Lab-Tek chamber slides (Nunc, Naperville, Ill.) and cultured for 5 days under the indicated conditions. The cells were fixed in 4% paraformaldehyde at room temperature for 15 minutes, and then washed with PBS/0.2% BSA. Next, the cells were passed through PBS/0.2% BSA/0.1% Triton X-100 for 15 minutes, and then incubated with 4% normal donkey serum (Molecular Probes, Eugene, Oreg., USA) in PBS/0.2% BSA at room temperature for 1 hour. The cells were diluted with PBS/0.2% BSA, and then reacted with primary antibody at 4° C. for 2 hours. After washing, the cells were reacted with FITC- or Alexa594-conjugated secondary antibody (Invitrogen) in PBS/0.2% BSA at room temperature for 1 hour. The cells were counter-stained with 10 μg/ml DAPI.
Most of various low-molecular-weight compounds known to be involved in the reprogramming process are involved genome methylation patterns, histone acetylation patterns or major signaling mechanisms. […]

In a further assay the test system is human skin fibroblasts. Put plainly: SA-β-gal senescence assay during reprogramming. It is filed as cell-based. As to conditions: 10 days after induction of reprogramming, compared to untreated control (OSKM alone) (FIG. 17).
Assay [2] has as its system human skin fibroblasts (hFFs). The assay can be described thus: Reprogramming of human skin fibroblasts, AP-positive colony count. In kind it is cell-based. Here is the method: In order to screen low-molecular-weight compounds that promote the production of reprogrammed stem cells, human fibroblasts were transduced with reprogramming viruses (Oct4, Sox2, Klf4, and c-Myc). After 5 days, the cells were seeded on Matrigel-coated plates, and then cultured in MEF-conditioned medium (CM) containing each of low-molecular-weight compounds until colonies having a morphology similar to that of human embryonic stem cells were formed. After 15 days, alkaline phosphatase (AP) activity was measured, and compounds that increased the efficiency of reprogramming compared to that of a control group were selected. […] The values shown on the graph are mean values. The data are expressed as mean±SD (n=3).
For production of iPSC, human skin fibroblasts (hFFs) and mouse embryonic fibroblasts (MEFs) were seeded on gelatin-coated 6-well plates at a concentration of 1×10^5 cells per well at one day before transfection and were transfected with virus in the presence of polybrene (8 μg/ml). At 5 days after the transfection, hFFs or MEFs were collected by trypsin treatment and seeded again on Matrigel-coated 6-well plates at a concentration of 5 to 6×10^4 cells per well in order to perform experiments in feeder-free conditions. The medium was replaced with MEF-CM medium containing 10 ng/ml of bFGF. MEF-CM was prepared as γ-irradiated MEF according to a known method (Xu C. Nat Biotechnol 19, 971-974), and […] bFGF was added to MEF-CM. The medium was replaced at 2-day intervals. At 20 days after the transfection, hESC-like colonies were collected and transferred to 12-well plates having MEFs as feeder cells, and then continuously cultured using the hESC culture method described in Example 2.
The OSKM reprogramming factor virus was produced according to the method of Example 3. In order to screen low-molecular-weight compounds that increase the efficiency of reprogramming, hFFs and mouse embryonic fibroblasts (OG2-MEF; hemizygous for the Oct4-GFP transgene) were seeded on gelatin-coated 6-well plates at a concentration of 1×10^5 cells at one day before transfection, and then transfected with virus in the presence of polybrene (8 μg/ml). At 5 days after the transfection, hFFs or MEFs were collected by trypsin treatment and seeded again on Matrigel- or gelatin-coated 12-well plates at a concentration of 3.5×10^4 cells per well in order to perform experiments under feeder-free conditions. The medium was replaced with 10 ng/ml bFGF-containing MEF-CM or mouse embryonic stem cell culture medium, and then the prepared low-molecular-weight compounds that are trans-3-indoleacrylic based compounds were added at various concentrations. The culture medium containing each of the low-molecular-weight compounds was replaced at 2-day intervals. At 15 days after the transfection, the number of either colonies showing AP activity or colonies expressing endogenous Oct4 GFP fluorescence was measured to determine the efficiency of reprogramming.
ALP staining was performed using a commercial ALP kit (Sigma) according to the manufacturer's instruction. Images of ALP-positive cells were recorded using HP Scanjet G4010. In addition, bight field images were obtained using an Olympus microscope (IX51, Olympus, Japan).
To discover low-molecular-weight compounds that involved in the reprogramming of human somatic cells, reprogramming regulators of human skin fibroblasts were investigated by analog library screening of thirty selected novel trans-3-indoleacrylic acid-based compounds. Human skin fibroblasts were transfected with OSKM reprogramming virus, and after 5 days, the cells were seeded on Matrigel-coated 12-well plates and incubated in MEF-conditioned medium (CM) containing each of the low-molecular-weight compounds until colonies having a morphology similar to that of human embryonic stem cells were formed.

Consider `NC(=O)c1cccc(NC(=O)/C=C/c2c[nH]c3ccccc23)c1` [RSC-133, 3-[3-(1H-indol-3-yl)-acrylamido]-benzamide], for which the “time of appearance of pluripotency-specific markers (Nanog, Tra1-81, Oct4, Rex1)” value in assay [1] (immunostaining and real-time PCR at various time points (FIGS. 15, 16)) is listed as “appeared early than that in an untreated control group”. Also, in assay [1] (real-time RT-PCR, cells harvested at 5-day intervals, presence vs absence of RSC-133 (FIG. 16)), the “expression levels of undifferentiation markers Nanog, Oct4 and Rex1” value is “relatively increased”. In addition, in assay [1] (real-time RT-PCR, presence vs absence of RSC-133 (FIG. 16 lower panel)), the “expression levels of p53, p21 and p16” value was “relatively inhibited”. Also, the “H3K9ace level by Western blot” value in the assay on H3K9ace (H3 as internal control (FIG. 18 right)) is “The same results were also obtained”. In the assay on H3K9ace (cultured 10 days in presence or absence of RSC-133 (FIG. 18 left)), the “ratio of undifferentiated cells having a high H3K9ace level (immunocytochemistry)” value is given as “higher in the test group treated with RSC-133 than in the control group”. Besides, the “decrease of the ratio of SA-β-gal-positive cells” value with human skin fibroblasts stood at 37.23%. In addition, in assay [2] (0, 0.1, 1, 5, 10 and 20 μM tested), the “concentration that increases the efficiency of reprogramming to the highest level” value worked out at 10 µM. Besides, in assay [2] (20 μM (FIG. 8)), the “efficiency of reprogramming at 20 μM versus 10 μM” value is reported as “did not increase”. Moreover, the “efficiency of reprogramming, hypoxic conditions” value in assay [2] (5% O2, compared to control group (FIG. 4)) is given as “showed the effect of increasing the efficiency of reprogramming of human skin fibroblasts”. Also, in assay [2] (21% O2, compared to control group (FIG. 4)), the “efficiency of reprogramming, normal conditions” value is “showed the effect of increasing the efficiency of reprogramming of human skin fibroblasts”. The “efficiency of reprogramming (alkaline phosphatase activity)” value in assay [2] (OSKM, MEF-CM, after 15 days, compared to control group (FIG. 3)) was “increased the efficiency of reprogramming of human skin fibroblasts”. Moreover, in assay [2] (RSC 133 10 μM, AP-positive colonies, OSKM (FIG. 2b)), the “effect on the promotion of reprogramming of human cells relative to AZA, VPA, TSA and SB431542” value is on record as 1.5-3.3 times. In addition, the “concentration dependence of the increase in efficiency of reprogramming” value in assay [2] (treatment concentration of up to 10 μM, AP-positive colonies (FIG. 8)) is listed as “concentration-dependent manner”. In assay [2] (treatment throughout the reprogramming process (condition 1 in FIG. 10)), the “efficiency of reprogramming, continuous treatment” value is “increased to the highest level”.

Source of the values: US9587225B2, “Low-molecular-compound for improving production, maintenance and proliferation of pluripotent stem cells, composition comprising the same, and culture method” (KOREA RESEARCH INSTITUTE OF BIOSCIENCE AND BIOTECHNOLOGY, priority 2012, dated 2017).
